The target of this experiment is Muscarinic acetylcholine receptor M1 (Oryctolagus cuniculus). The experiment can be described thus: Efficacy at muscarinic acetylcholine receptor M1 measured by the ability to inhibit the electrically stimulated twitch of the rabbit vas deferens.

pIC50: −log10 of the molar value.

In the case of `CCCCCCSc1nsnc1C1=CCCN(C)C1` [5-(4-Hexylsulfanyl-[1,2,5]thiadiazol-3-yl)-1-methyl-1,2,3,6-tetrahydro-pyridine; oxalic acid], the pIC50 was 12.00.

The record behind these values is BindingDB's records for doi:10.1021/jm00100a005 (Eli Lilly, 1992).
